The source of these data is US8399508B2, “Olopatadine formulations for topical nasal administration” (Alcon Pharmaceuticals Ltd., priority 2001, dated 2013).

SMILES strings stand for the structures. Counter-ions that a name gives are not always drawn.

Common to all, as to format: physicochemical
The nature of data set [1]: Acid-base equilibrium of olopatadine (pKa values, iso-electric point). The source says: Olopatadine has both a carboxylic functional group (pKa1=4.18) and a tertiary amino group (pKa2=9.79). It exists in different ionic forms depending upon the pH of the solution. Olopatadine exists predominantly as a zwitterion in the pH range between the two pKa values with a negatively-charged carboxylic group and a positively-charged tertiary amino group. The iso-electric point of the olopatadine zwitterion is at pH 6.99. At a pH lower than pKa1, cationic olopatadine (with ionized tertiary amino group) is dominant. At a pH higher than pKa2, anionic olopatadine (with ionized carboxylic group) is dominant.

Data set [2] is described as follows: Effect of NaCl and Na2HPO4 on dissolution of olopatadine hydrochloride in water. Here is the method:
The effect of NaCl on the dissolution rate of olopatadine hydrochloride in water was determined.

The nature of data set [3]: Example 5: visual observations of clarity during compounding, with and without phosphate buffer. Particulars: without phosphate buffer, 0.7% NaCl, pH as low as 3.6, compounding procedure of Example 1. Here is the method: An exemplary compounding procedure for the nasal composition shown in Table 1 is described as below. • 1. Tare a suitable compounding vessel with magnetic stir bar. Add approximately 80% of the batch weight of purified water. • 2. While stirring, add dibasic sodium phosphate (anhydrous), sodium chloride, edetate disodium, benzalkonium chloride and olopatadine HCl. • 3. Add equivalent to approximately 0.55 g, 6N hydrochloric acid per 100 ml batch. • 4. Allow adequate time between each addition for dissolution of each ingredient • 5. Add purified water to approximately 90% of final batch weight. • 6. Measure pH and adjust, if necessary, to 3.7 with 6N (and/or 1N) hydrochloric acid and 1N sodium hydroxide. • 7. Adjust to final batch weight with purified water (QS). • 8. Measure final pH. • 9. Filter through 0.2 μm filtration membrane.
The two compositions shown in Table 2 below were prepared using the procedure described in Example 1 and visual observations of the compositions clarity were made at different points during the compounding procedure.

The nature of data set [4]: Example 6: visual observations, phosphate buffer added to cloudy 0.6% olopatadine composition. Particulars: tested nasal vehicle without a phosphate salt.
Data set [5] in a line: Effect of NaCl and Na2HPO4 concentrations on dissolution of olopatadine hydrochloride in a nasal formulation. Here is the method: The effect of NaCl and Na2HPO4 concentrations on the dissolution rate of olopatadine hydrochloride in a nasal formulation containing 0.01% EDTA and 0.01% BAC was determined. The aqueous solubility of olopatadine HCl decreases with increasing concentration of NaCl.

Data set [6] is described as follows: Effect of NaCl, Na2HPO4 and mannitol on dissolution rate of olopatadine hydrochloride in a nasal vehicle. As to conditions: nasal formulation containing 0.01% EDTA and 0.01% BAC. The method, then: The effect of NaCl, Na2HPO4, and mannitol on the dissolution rate of olopatadine hydrochloride in a nasal formulation containing 0.01% EDTA and 0.01% BAC was determined.

Regarding `CN(C)CC/C=C1/c2ccccc2COc2ccc(CC(=O)O)cc21` [Olopatadine, Z-11-(3-dimethylaminopropylidene)-6,11-dihydrodibenz[b,e]oxepine-2-acetic acid], in data set [1], the “iso-electric point of the olopatadine zwitterion” value was determined as 6.99 pH, the “pKa1 (carboxylic functional group)” value is recorded as 4.18 and the “pKa2 (tertiary amino group)” value came to 9.79. Also, the “effect of NaCl on rate of dissolution” value in data set [2] (in water) is “significant reduction”. Moreover, the “effect of addition of Na2HPO4 on dissolution” value in data set [2] (in water with NaCl) is “dramatically improved”. For the same molecule, the “time for complete dissolution of 0.6% olopatadine solution” value in data set [2] (with Na2HPO4) is reported as “less than one minute”. Besides, in data set [2] (without Na2HPO4, assuming the entire amount would eventually dissolve), the “time for complete dissolution of 0.6% olopatadine solution” value is given as “at least several hours”.
As for `CN(C)CC/C=C1/c2ccccc2COc2ccc(CC(=O)O)cc21` [olopatadine hydrochloride, hydrochloride salt of (Z)-11-(3-dimethylaminopropylidene)-6,11-dihydro-dibenz-[b,e]oxepin-2-acetic acid], in data set [3], the “dissolution of 0.665% olopatadine hydrochloride in water” value is reported as “did not completely dissolve”. Also, the “solubility of 0.665% olopatadine hydrochloride” value in data set [4] was “not soluble”. Further, the aqueous solubility entry in data set [5] (with increasing concentration of NaCl, nasal formulation with 0.01% EDTA and 0.01% BAC) was “decreases”; in data set [5] (with increasing phosphate buffer in the presence of NaCl) it was “increased aqueous solubility”. Further, in data set [6], the “effect of phosphate salt on dissolution rate” value is on record as “the same as that shown in water in Example 2”.
